Reference: patent US4820834A, “Benzodiazepine analogs” (priority 1987, dated 1989)
Where two headings read alike, the source gives them in different places.

Tests used:
[1] = target: T1, CCK receptor (brain, cerebral cortex) (Cavia porcellus, UniProt H0VZC5); assay: biochemical; format: binding, Male Hartley guinea pigs; details: guinea pig cerebral cortex, ^125 I-CCK-33, 25° C., 2 hours
T1 construct: Cerebral cortex was dissected and used as a receptor source; from tissue; host or cells: guinea pig cerebral cortex membranes (male Hartley)
T1 sequence (H0VZC5 1-426): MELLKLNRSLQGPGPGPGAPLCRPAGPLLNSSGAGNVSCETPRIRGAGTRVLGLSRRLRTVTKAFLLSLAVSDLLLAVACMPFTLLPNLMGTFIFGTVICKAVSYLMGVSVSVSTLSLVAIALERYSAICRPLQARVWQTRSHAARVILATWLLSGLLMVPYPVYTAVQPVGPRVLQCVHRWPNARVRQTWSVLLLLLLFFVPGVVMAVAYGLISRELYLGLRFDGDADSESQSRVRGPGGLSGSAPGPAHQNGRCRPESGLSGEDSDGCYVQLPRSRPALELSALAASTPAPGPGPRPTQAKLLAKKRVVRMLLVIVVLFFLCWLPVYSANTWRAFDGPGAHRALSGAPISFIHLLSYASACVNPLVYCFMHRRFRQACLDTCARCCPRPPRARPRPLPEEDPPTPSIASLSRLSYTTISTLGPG
Outline: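 Binding of [radiolabeled] CCK-33 measured by gamma counting of centrifuged pellets after 2 h at 25°C. Membranes came from guinea pig brain cortex, suspended in 10 mM HEPES, 5 mM MgCl2, 1 mM EGTA, 0.25 mg/ml bacitracin, 0.4% BSA.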

[2] = target: T2, CCK receptor (pancreas) (Rattus norvegicus, UniProt P30551); assay: CCK Receptor Binding (Pancreas): inhibition of ^125 I-CCK-33 binding; parameters: species or system Male Sprague-Dawley rats; details: rat pancreas membranes, ^125 I-CCK-33, 37° C., 30 minutes
T2 construct: The whole pancreas was dissected free of fat tissue and was homogenized; from tissue; host or cells: rat pancreas membranes (Sprague-Dawley)
T2 sequence (P30551 1-444): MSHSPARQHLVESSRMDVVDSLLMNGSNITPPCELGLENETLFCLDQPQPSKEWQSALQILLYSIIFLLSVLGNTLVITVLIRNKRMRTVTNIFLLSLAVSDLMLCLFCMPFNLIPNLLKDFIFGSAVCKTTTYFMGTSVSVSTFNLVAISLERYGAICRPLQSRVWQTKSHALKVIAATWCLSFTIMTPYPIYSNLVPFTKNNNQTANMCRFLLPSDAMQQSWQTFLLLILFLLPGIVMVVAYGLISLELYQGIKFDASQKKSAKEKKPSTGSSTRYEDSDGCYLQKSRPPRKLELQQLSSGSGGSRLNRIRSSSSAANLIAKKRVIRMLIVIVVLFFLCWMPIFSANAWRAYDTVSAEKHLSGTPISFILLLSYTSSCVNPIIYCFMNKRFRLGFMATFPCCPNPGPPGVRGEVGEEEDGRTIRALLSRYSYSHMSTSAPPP
Protocol: 1. CCK Receptor Binding (Pancreas)
CCK-33 was radiolabeled with ^125 I-Bolton Hunter reagent (2000 Ci/mmole) as described by Sankara et al. (J. Biol. Chem. 254: 9349-9351, 1979). Receptor binding was performed according to Innis and Snyder (Proc. Natl. Acad. Sci. 77: 6917-6921, 1980) with the minor modification of adding the additional protease inhibitors, phenylmethane sulfonyl fluoride and o-phenanthroline.
Male Sprague-Dawley rats (200-350 g) were sacrificed by decapitation. The whole pancreas was dissected free of fat tissue and was homogenized in 20 volumes of ice-cold 50 mM, Tris HCl (pH 7.7 at 25° C.) with a Brinkmann Polytron PT 10. The homogenates were centrifuged at 48,000 g for 10 min. Pellets were resuspended in Tris Buffer, centrifuged as above and resuspended in 200 volumes of binding assay buffer (50 mM Tris HCl, pH 7.7 at 25° C., 5 mM dithiothrietol, 0.1 mM bacitracin, 1.2 mM phenylmethane sulfonyl fluoride and 0.5 mM o-phenanthroline). […] All assays were run in duplicate or triplicate. The reaction mixtures were incubated at 37° C. for 30 minutes and centrifuged in a Beckman Microfuge (4 minutes) immediately after adding 1 ml of ice-cold incubation buffer. The supernatant was aspirated and discarded, pellets were counted with a Beckman gamma 5000. For Scatchard analysis (Ann. N.Y. Acad. Sci. 51: 660, 1949), ^125 I-CCK-33 was progressively diluted with increasing concentrations of CCK-33.

[3] = read-out: IC50 ^125 I-CCK Brain
[4] = read-out: IC50 ^125 I-CCK Pancreas

IC50 [1, 3] [µM] | IC50 [2, 4] [µM] | SMILES | IC50 ([1]; IC50 ^125 I-CCK Brain) [µM] | IC50 ([2]; IC50 ^125 I-CCK Pancreas) [µM]
 |  | O=C1Nc2ccc(Cl)cc2C(c2ccccc2)=NC1Cc1cccc2ccccc12 (racemic) [Example 17, 7-Chloro-1,3-dihydro-3(RS)-(1-naphthyl)methyl-5-phenyl-2H-1,4-benzodiazepin-2-one] | 100 | 23
 |  | O=C1Nc2ccc(Cl)cc2C(c2ccccc2)=NC1Cc1ccc2ccccc2c1 (racemic) [Example 18, 7-Chloro-1,3-dihydro-3(RS)-(2-naphthyl)methyl-5-phenyl-2H-1,4-benzodiazepin-2-one] | 61 | 49
 |  | O=C1Nc2ccccc2C(c2ccccc2F)=NC1Cc1cccs1 (racemic) [Example 19, 1,3-Dihydro-5-(2-fluorophenyl)-3(RS)-(2-thienyl)methyl-2H-1,4-benzodiazepin-2-one] | > 100 | 33
 |  | O=C1Nc2ccccc2C(c2ccccc2F)=NC1Cc1c[nH]c2cc(F)ccc12 (racemic) [Example 60, 1,3-Dihydro-3(RS)-[3'-(6'-fluoroindolyl)methyl]-5-o-fluorophenyl-2H-1,4-benzodiazepin-2-one] | 100 | 1.3
 |  | CN1C(=O)[C@@H](Cc2c[nH]c3ccccc23)N=C(c2ccccc2F)c2ccccc21 [Example 4b, 1,3-dihydro-5-(2-fluorophenyl)-3(R)-(3'-indolyl) methyl-1-methyl-2H-1,4-benzodiazepin-2-one] | 18 | 0.27
 |  | O=C1Nc2ccc(Cl)cc2C(c2ccccc2)=N[C@@H]1Cc1c[nH]c2ccccc12 [Example 5, 7-Chloro-1,3-dihydro-3(R)-(3'-indolyl)methyl-5-phenyl-2H-1,4-benzodiazepin-2-one] | 100 | 3.4
 |  | O=C1Nc2ccccc2C(c2ccccc2)=N[C@@H]1Cc1c[nH]c2ccccc12 [Example 6, 1,3-Dihydro-3(R)-(3'-indolyl)methyl-5-phenyl-2H-1,4-benzodiazepin-2-one] | 50 | 1.2
 |  | O=C1Nc2ccc(Cl)cc2C(c2ccccc2)=N[C@@H]1Cc1ccc(OCc2ccccc2)cc1 [Example 16, 7-Chloro-1,3-dihydro-3(R)-(4-benzyloxybenzyl)-5-phenyl-2H-1,4-benzodiazepin-2-one] | > 100 | > 100
> 100 | 12 | O=C1Nc2ccc(Cl)cc2C(c2ccccc2)N[C@@H]1Cc1c[nH]c2ccccc12 (stereo partly drawn) [Example 25, 7-Chloro-1,3,4,5-tetrahydro-3(R)-(3'-indolyl)methyl-5-phenyl-2H-1,4-benzodiazepin-2-one] |  | 
> 100 | 75 | O=C1Nc2ccc(Cl)cc2C(c2ccccc2)N[C@H]1Cc1c[nH]c2ccccc12 (stereo partly drawn) [Example 26, 7-Chloro-1,3,4,5-tetrahydro-3(S)-(3'-indolyl)methyl-5-phenyl-2H-1,4-benzodiazepin-2-one] |  | 
> 100 | > 100 | CN1C(=O)[C@@H](Cc2cn(C)c3ccccc23)N(C(=O)c2ccc(Cl)cc2)C(c2ccccc2F)c2ccccc21 (stereo partly drawn) [Example 27a, 4-(p-Chlorobenzoyl)-5-(2-fluorophenyl)-3(R)-[3'-(1'-methylindolyl)-methyl]-1-methyl-1,3,4,5-tetrahydro-2H-1,4-benzodiazepin-2-one] |  | 
> 100 | 100 | CC(=O)N1C(c2ccccc2F)c2ccccc2N(C)C(=O)[C@H]1Cc1cn(C)c2ccccc12 (stereo partly drawn) [Example 27b, 4-acetyl-5-(2-fluorophenyl)-3(R)-[3'-(1'-methylindolyl)-methyl]-1-methyl-1,3,4,5-tetrahydro-2H-1,4-benzodiazepin-2-one] |  | 
 |  | O=C1Nc2ccc(Cl)cc2C(c2ccccc2Cl)=N[C@@H]1Cc1c[nH]c2ccccc12 [Example 28, 7-Chloro-5-(2-chlorophenyl)-1,3-dihydro-3(R)-(3'-indolyl)methyl-2H-1,4-benzodiazepin-2-one] | > 100 | 5
 |  | O=C1[C@@H](Cc2c[nH]c3ccccc23)N=C(c2ccccc2)c2cc(Cl)ccc2N1Cc1ccccc1 [Example 30, 1-Benzyl-7-chloro-1,3-dihydro-3(R)-(3'-indolyl) methyl-5-phenyl-2H-1,4-benzodiazepin-2-one] | > 100 | > 100
 |  | CN1C(=O)[C@@H](Cc2c[nH]c3ccccc23)N=C(c2ccccc2)c2cc(Cl)ccc21 [Example 31, 7-Chloro-1,3-Dihydro-3(R)-(3'-indolyl)methyl-1-methyl-5-phenyl-2H-1,4-benzodiazepin-2-one] | > 100 | 1.4
 |  | O=C1[C@H](Cc2c[nH]c3ccccc23)N=C(c2ccccc2)c2cc(Cl)ccc2N1Cc1ccccc1 [Example 33, 1-Benzyl-7-chloro-1,3-dihydro-3(S)-(3'-indolyl) methyl-5-phenyl-2H-1,4-benzodiazepin-2-one] | > 100 | > 100
 |  | S=C1Nc2ccc(Cl)cc2C(c2ccccc2)=N[C@@H]1Cc1c[nH]c2ccccc12 [Example 34, 7-Chloro-1,3-dihydro-3(R)-(3'-indolyl)methyl-5-phenyl-2H-1,4-benzodiazepin-2-thione] | > 100 | 4.5
 |  | CCOC(=O)CN1C(=O)[C@@H](Cc2c[nH]c3ccccc23)N=C(c2ccccc2F)c2ccccc21 [Example 42, 1,3-Dihydro-1-(ethoxycarbonylmethyl)-5-(2-fluorophenyl)-3(R)-(3'-indolyl)methyl-2H-1,4-benzodiazepin-2-one] | > 100 | 8.3
 |  | CN1C(=O)[C@@H](Cc2cn(Cc3ccccc3)c3ccccc23)N=C(c2ccccc2)c2cc(Cl)ccc21 [Example 46, 7-Chloro-1,3-dihydro-3(R)-[3'(1'-benzylindolyl)methyl]1-methyl-5-phenyl-2H-1,4-benzodiazepin-2-one] | > 100 | > 100
 |  | O=C(O)c1ccccc1C1=N[C@H](Cc2c[nH]c3ccccc23)C(=O)Nc2ccccc21 [Example 58, 5-o-Carboxyphenyl-1,3-dihydro-3(R)-(3+-indolyl)methyl-2H-1,4-benzodiazepin-2-one] |  | 18
 |  | NC(=O)CN1C(=O)[C@@H](Cc2c[nH]c3ccccc23)N=C(c2ccccc2F)c2ccccc21 [Example 123, 1-Carboxamidomethyl-1,3-dihydro-3R-(3-indolylmethyl)-5-(2-fluorophenyl)-2H-1,4-benzodiazepin-2-one] |  | 2.1
 |  | O=C1Nc2ccccc2C(c2ccccc2)=NC1CC1CNc2ccccc21 (centres unmarked) [Example 199, 3-((2,3-Dihydro-1H-indol-3-yl)methyl)-1,3-dihydro-5-phenyl-2H-1,4-benzodiazepin-2-one] |  | 3.2
 |  | CN1CC(CC2N=C(c3ccccc3)c3ccccc3N(C)C2=O)c2ccccc21 (centres unmarked) [Example 211, 3-((2,3-Dihydro-1-methyl-1H-indol-3-yl)methyl)-1,3-dihydro-1-methyl-5-phenyl-2H-1,4-benzodiazepin-2-one] | 93 | 13
 |  | CC(C)CC(NC(=O)OC(C)(C)C)C(=O)N1CC(CC2N=C(c3ccccc3)c3ccccc3NC2=O)c2ccccc21 (centres unmarked) [Example 225, (1-((3-((2,3-Dihydro-2-oxo-5-phenyl-1H-1,4-benzodiazepin-3-yl)methyl)-2,3-dihydro-1H-indol-1-yl)carbonyl)-3-methylbutyl)-carbamic acid-1,1-dimethylethyl ester] |  | 4.7
